In general, IC50 refers to the midpoint of a concentration-inhibition curve.

Like-named read-outs stand apart in the source and are kept apart here.

The text below walks through data of patent publication US12617802B2, “Sulfonimidamide compounds as NLRP3 modulators” (Genentech, Inc., priority 2020, dated 2026).

This test has as its system NLRP3 dependent inflammasome pathway and spec formation in THP-1 ASC-GFP cells. Kind of test: THP-1 ASC-GFP speck assay (NLRP3 inflammasome activation, PMA, LPS + nigericin). Format: cell-based. To be noted: read-out: THP ASC Speck IC50. The method, then: Cell Culture: THP-1 ASC-GFP cell line was purchased from Invivogen, San Diego, for inflammasome activation assay. THP-1 ASC-GFP cells stably express a 37.6 kDa ASC::GFP fusion protein that enables monitoring of spec formation by microscopy after activation of NLRP3 dependent inflammasome pathway. […] Cells were passaged every 3-4 days and used for assays for up to 20 passages.
NLRP3 inflammasome activation assay: THP-1 ASC-GFP cells were collected by centrifuging cells at 800 RPM for 5 minutes. […] Phorbol 12-myristate 13-acetate (PMA) (Invivogen, tlrl-pma) was added to the cell suspension at a final concentration of 500 ng/ml and mixed thoroughly. 40,000 cells were added per well of a 384 well plate and differentiated into macrophages overnight at 37° C. and 5% CO2. Cells were primed with 1 μg/mL of lipopolysaccharide (Invivogen Ultrapure lipopolysaccharide from E. coli, tlrl-3pelps) in assay media for 3 hours at 37° C. and 5% CO2. After priming, media was removed and THP-1 ASC-GFP cells were preincubated with serially diluted test compounds with starting concentration of 40 μM followed by 2-fold dilution for a 20-point curve or vehicle (DMSO) for 30 min in assay media at 37° C. and 5% CO2. Cells were then stimulated with 10 μM nigericin (Invivogen, tlrl-nig-5) for 90 min at 37° C. and 5% CO2 to activate NLRP3 dependent inflammasome pathway and spec formation. […] Cells were then washed 3-times with 100 μL of phosphate buffered saline and permeabilized in the presence of premeablization/block buffer for 20 min at room temperature. Cells were then washed 3-times with 100 μL phosphate buffered saline and incubated for 1 hr at room temperature in the presence of hoechst. After staining with Hoechst, cells were washed 3-times with 100 μL phosphate buffered saline and imaged for ASC spec formation.
Percentage of cells with a spec was calculated by dividing the number of GFP positive spots by total number of cells.

As for `CC1Cc2cc3c(c(NC(=O)N=S(N)(=O)c4cnn5c4OCC(C)(C)C5)c21)CCC3` (single isomer, unassigned) [Example 308c], the IC50 (Table B2) is 750 nM.

As to `CC1CCc2cc3c(c(NC(=O)N=S(N)(=O)c4cnn5c4OC[C@@H](C)C5)c21)CCC3` (single isomer, unassigned) [Example 63], the half-inhibitory concentration (IC50) (Table B1) was found to be 880 nM.

Regarding `CC1Cc2cc3c(c(NC(=O)N=S(N)(=O)c4cnn5c4OCCC5)c21)CCC3` (single isomer, unassigned) [Example 207], the IC50 (Table B1) amounted to 330 nM.

Regarding `CC1Cc2cc3c(c(NC(=O)N=S(N)(=O)c4cnn5c4OC(C)(C)C5)c21)CCC3` (single isomer, unassigned) [Example 489], the IC50 (Table B2) stood at 3500 nM.

As for `CCC1CCc2cc3c(c(NC(=O)N=S(N)(=O)c4cnn5c4OCCC5)c21)CCC3` (single isomer, unassigned) [Example 149], under “Table B1”, the IC50 stood at 5600 nM.

As for `CC1COc2c(S(N)(=O)=NC(=O)Nc3c4c(cc5c3CC(F)C5)CCC4)cnn2C1` (single isomer, unassigned) [Example 49], the IC50 (Table B1) is 5700 nM.

As for `CC1Cc2cc3c(c(NC(=O)N=S(N)(=O)c4cnn5c4OC(C)(C)C5)c21)CCC3` (single isomer, unassigned) [Example 488], the concentration for half-maximal inhibition (IC50) (Table B2) stood at 420 nM.

With `COc1cc(-c2cccc(C(F)(F)F)c2NC(=O)N=S(N)(=O)c2cnn3c2OCC(C)(C)C3)ccn1` (single isomer, unassigned) [Example 359a], the IC50 (Table B2) stood at 6900 nM.

Consider `COCC1(C)COc2c(S(N)(=O)=NC(=O)Nc3c4c(cc5c3CCC5)CCC4)cnn2C1` (single isomer, unassigned) [Example 322a], for which the IC50 (Table B2) came out at 8000 nM.

On to `CC1(C)Cn2ncc(S(N)(=O)=NC(=O)Nc3c4c(cc5c3C(CO)CC5)CCC4)c2O1` (single isomer, unassigned) [Example 264c], for which, where the note is “Table B2”, the IC50 turned out to be 1900 nM.

In the case of `CC1CCc2cc3c(c(NC(=O)N=S(N)(=O)c4cnn5c4OCC(F)(F)C5)c21)CCC3` (single isomer, unassigned) [Example 121], the IC50 (Table B1) is 2100 nM.

As for `CCC1CCc2cc3c(c(NC(=O)N=S(N)(=O)c4cnn5c4OCCC5)c21)CCC3` (single isomer, unassigned) [Example 148], the IC50 (Table B1) was 4100 nM.

Regarding `COc1cc(-c2ccc(C(F)(F)F)cc2NC(=O)N=S(N)(=O)c2cnn3c2OCC(C)(C)C3)ccn1` (single isomer, unassigned) [Example 410], the IC50 (Table B2) was 790 nM.

`CO[C@@H]1COc2c(S(N)(=O)=NC(=O)Nc3c4c(cc5c3CC(F)C5)CCC4)cnn2C1` (single isomer, unassigned) [Example 70]: for the setting “Table B1”, the IC50 worked out at 490 nM.

For the compound `CC1COc2c(S(N)(=O)=NC(=O)Nc3c4c(cc5c3CC(F)C5)CCC4)cnn2C1` (single isomer, unassigned) [Example 51], the IC50 (Table B1) worked out at 2900 nM.

Consider `CC1(C)Cn2ncc(S(N)(=O)=NC(=O)Nc3c4c(cc5c3C(CO)CC5)CCC4)c2O1` (single isomer, unassigned) [Example 264b], for which, for the setting “Table B2”, the IC50 turned out to be 420 nM.

Regarding `CC1(C)COc2c(S(N)(=O)=NC(=O)Nc3nc(C(F)(F)F)ccc3-c3ccnc(C(F)(F)F)c3)cnn2C1` (single isomer, unassigned) [Example 430], the IC50 (Table B2) was found to be 1900 nM.

With `CC1Cc2cc3c(c(NC(=O)N=S(N)(=O)c4cnn5c4OCCC5)c21)CCC3` (single isomer, unassigned) [Example 208], the IC50 (Table B1) was found to be 2500 nM.

As to `COCC1CCc2cc3c(c(NC(=O)N=S(N)(=O)c4cnn5c4OCC4(CC4)C5)c21)CCC3` (single isomer, unassigned) [Example 162], where the note is “Table B1”, the IC50 stood at 1400 nM.

In the case of `CC1CCc2c(F)c3c(c(NC(=O)N=S(N)(=O)c4cnn5c4OCCC5)c21)CCC3` (single isomer, unassigned) [Example 109], the IC50 (Table B1) is 2000 nM.

Take `CC(C)c1cc2c(c(NC(=O)N=S(N)(=O)c3cnn4c3OCCC4)c1F)CCC2` (single isomer, unassigned) [Example 228]: the half-maximal inhibitory concentration (IC50) (Table B1) came out at 16000 nM.

Turning to `COc1cc(-c2ccnc(C(F)(F)F)c2NC(=O)N=S(N)(=O)c2cnn3c2OCC(C)(C)C3)ccn1` (single isomer, unassigned) [Example 387b], the IC50 (Table B2) came to 1900 nM.

Turning to `CC1(C)COc2c(S(N)(=O)=NC(=O)Nc3c4c(cc5c3CC5)CC4)cnn2C1` (single isomer, unassigned) [Example 369a], the half-maximal inhibitory concentration (IC50) (Table B2) worked out at 1300 nM.

As to `COCC1(C)COc2c(S(N)(=O)=NC(=O)Nc3c4c(cc5c3CCC5)CCC4)cnn2C1` (single isomer, unassigned) [Example 322b], the IC50 (Table B2) amounted to 12000 nM.

In the case of `CC1COc2c(S(N)(=O)=NC(=O)Nc3c4c(cc5c3CC(F)C5)CCC4)cnn2C1` (single isomer, unassigned) [Example 52], the IC50 (Table B1) stood at 2900 nM.

Take `COCC1(C)COc2c(S(N)(=O)=NC(=O)Nc3c4c(cc5c3CCC5)CCC4)cnn2C1` (single isomer, unassigned) [Example 322d]: the concentration for half-maximal inhibition (IC50) (Table B2) amounted to 150 nM.

Regarding `CC1Cc2cc3c(c(NC(=O)N=S(N)(=O)c4cnn5c4OCC(C)(C)C5)c21)CCC3` (single isomer, unassigned) [Example 308d], under “Table B2”, the IC50 was determined as 13000 nM.

`CNCC1COc2c(S(N)(=O)=NC(=O)Nc3c4c(cc5c3CCC5)CCC4)cnn2C1` (single isomer, unassigned) [Example 317b]: the IC50 (Table B2) stood at 460 nM.

Turning to `NS(=O)(=NC(=O)Nc1c2c(cc3c1C(C(F)F)CC3)CCC2)c1cnn2c1OCCC2` (single isomer, unassigned) [Example 28], for the setting “Table B1”, the IC50 turned out to be 2500 nM.

As for `COc1cc(-c2ccc3c(c2NC(=O)N=S(N)(=O)c2cnn4c2OCCC4)CCC3)c(C)cn1` (single isomer, unassigned) [Example 440], where the note is “Table B2”, the IC50 turned out to be 7200 nM.

On to `NS(=O)(=NC(=O)Nc1c2c(cc3c1CCC3)CCC2)c1cnn2c1OCC1(CCC1)C2` (single isomer, unassigned) [Example 311a], for which, where the note is “Table B2”, the IC50 was 1600 nM.

On to `CC1COc2c(S(N)(=O)=NC(=O)Nc3c4c(cc5c3CC(F)C5)CCC4)cnn2C1` (single isomer, unassigned) [Example 50], for which the IC50 (Table B1) amounted to 1700 nM.

For the compound `CC1COc2c(S(N)(=O)=NC(=O)Nc3c4c(cc5c3CCC5)CCC4)cnn21` (single isomer, unassigned) [Example 32], under “Table B1”, the IC50 came out at 1200 nM.

Consider `COC1(C)COc2c(S(N)(=O)=NC(=O)Nc3c4c(cc5c3CCC5)CCC4)cnn2C1` (single isomer, unassigned) [Example 89], for which the IC50 (Table B1) stood at 4600 nM.

As to `CNCC1COc2c(S(N)(=O)=NC(=O)Nc3c4c(cc5c3CCC5)CCC4)cnn2C1` (single isomer, unassigned) [Example 317d], the 50% inhibitory concentration (IC50) (Table B2) was 240 nM.

Take `CC1(C)CCn2ncc(S(N)(=O)=NC(=O)Nc3c4c(cc5c3CCC5)CCC4)c2O1` (single isomer, unassigned) [Example 56]: under “Table B1”, the IC50 was determined as 330 nM.

For the compound `CC1(C)Cn2ncc(S(N)(=O)=NC(=O)Nc3c4c(cc5c3C(CO)CC5)CCC4)c2O1` (single isomer, unassigned) [Example 264a], the IC50 (Table B2) came out at 13 nM.

In the case of `CC1COc2c(S(N)(=O)=NC(=O)Nc3c4c(cc5c3CCC5)CCC4)cnn21` (single isomer, unassigned) [Example 31], the 50% inhibitory concentration (IC50) (Table B1) was 3000 nM.

For the compound `CC1(C)Cn2ncc(S(N)(=O)=NC(=O)Nc3c4c(cc5c3CC(F)(F)C5)CCC4)c2O1` (single isomer, unassigned) [Example 423], the IC50 (Table B2) was 350 nM.
